“Also recorded” adds a separate entry of the source. Where two headings read alike, the source gives them in different places.
What was measured:
[1] = system: HaCat keratinocytes; assay: clonal growth assay of HaCat keratinocytes with growth factor/retinoid supplements; type: cell-based, human; details: for keratinocyte clonal growth: FIG. 1
Experimental: In the following experiment, the effect of on keratinocyte growth of adding single or multiple additives to standard medium (Std) was examined in a clonal growth assay performed according to the methods described previously (Wille et al., 1984). Briefly, a sterile […] plastic disposable Petri dish is seed with 5,000 high cloning HaCat cells, and refed complete (E^+I^+) serum free HECK 109 medium at incubated at 37° C. for 24 to 48 hours. The cells are washed with ice-cold Standard HECK 109 medium and refed various combinations of growth factors and retinyl acetate (RetAC).
FIG. 1 presents a photograph showing the results of incubating the HaCat seeded clonal assay dishes various supplements. The cells were fixed with 50% ethanol and stained with 0.2% crystal violet stain. This imparts a blue color to the cells. The stained dishes were then photographed.
In a second series of experiments the HaCat keratinocyte clonal growth after one day (D1) was compared for the combination: insulin plus retinyl acetate (Ins+Rac, D1) and the combination: EGF plus insulin (EI, D1). […] In these studies, insulin was also a necessary growth factor when used in combination with retinyl acetate. This may reflect the often-observed phenomenon of “carry-over” of bound EGF on cell surface growth factor receptor.

[2] = system: HaCat keratinocytes; assay: inhibition of retinoid-induced autocrine growth of HaCat keratinocytes by receptor tyrosine kinase inhibitor; type: cell-based, human; details: standard medium + 5 ug/ml insulin + 3×10^−8 M retinyl acetate, d1, FIG. 5
Experimental: In this experiment a selective inhibitor of receptor tyrosine protein phosphokinase was added to a culture of HaCat keratinocytes immediately prior to replacing the growth factor replete medium with HECK 110 serum free medium containing the combination insulin and retinyl acetate to induce autocrine growth. FIG. 5 presents a photograph showing three culture dishes with the following growth conditions: A. Standard growth medium (Std, d1); B. Standard growth medium containing the combination: 5 ug/ml insulin plus 3×10^−8M retinyl acetate (Ins+RAc, d1) and C. standard medium containing the combination: 5 ug/ml insulin, 3×10^−8M retinyl acetate and 2 uM of receptor tyrosine protein kinase inhibitor (Ins+Rac+RTKI, d1).

[3] = system: HaCat keratinocytes; assay: wound healing zone (WHZ) wound gap closure in confluent HaCat keratinocyte sheets; type: cell-based, human; details: for healing of WHZ: 24 hours, with insulin
Experimental: Keratinocytes were grown in a serum free medium supplemented with 5 ng/ml EGF and 5 ug/ml insulin and 0.2% fetal bovine serum and reseeded at 1×10^5 cells per cm^2 in to 35 mm 2 circular disposable Petri dishes and incubated at 37° C. until the cells completely filled the dish. These confluent cultures were then washed with ice-cold basal MCDB serum free medium and refed a serum free medium of the present invention whose composition is as shown in Table 1. A 2.5 mm linear wound was made across the midline of the diameter of the confluent culture with a 2.5 mm diameter heat-sealed tip of a 9 inch sterile Pasteur pipette. […] Wound of this diameter were routinely and reproducibly made by this technique and allow study of the effect of any agent that might have an effect on wound healing by measuring the delay in time it takes to fill in the wound gap of the WHZ.
FIG. 6 is a photograph of 9 culture dishes fixed with 50% ethanol and stained with 0.2% crystal violet 24 hours after forming the WHZ and incubated in the serum free medium of this invention containing varying doses of retinyl acetate. The experiment was performed in duplicate dishes. There is only one dish labeled 3E-5 as its duplicate was contaminated with mold and was eliminated. Control dishes were refed serum free medium supplemented with insulin but no retinyl acetate. All of the other dishes were r3efed serum free medium with insulin and increasing amount of retinyl acetate. The mi9d line WHZ was filled by epidermal keratinocyte migration and cell growth in all of the dishes except for cultures that had retinyl acetate at concentrations greater than 3×10^−6 M.
FIG. 7 show photomicrographs comparing wound closure in the WHZ for cultures of HaCat keratinocytes fixed and stained with crystal violet stain and photographed with bright field illumination.

[4] = system: c-neu; assay: indirect immunofluorescence c-neu staining of keratinocytes propagated with retinoic acid; type: cell-based, human; details: 5×10^−8 M all-trans retinoic acid
Description: In order to determine whether retinoids like retinyl acetate induced autocrine secretion of an EGF-like protein growth factor that binds to an EGF-like cell surface receptor, we designed an experiment using the erbB antibody purchased from Oncogene Sciences (Manhasset, N.Y.) and performed indirect immunofluoresnce (IIF) cytochemistry on fixed normal human neonatal foreskin keratinocytes prepared according to previous studies (Wille et al., 1984). The technique of indirect immunofluorescene was performed according to the antibody manufacturers instructions for c-neu antibody. The neu oncogene was discovered after serial transformation of cells using rat neuroblastoma DNA. The isolated oncogene hybridizes with v-erbB and has 50% homology to the normal EGF receptor, a tyrosine kinase type enzyme protein. The proto-oncogene for neu is designated c-erb-2.
Normal human keratinocytes were propagated in a serum free medium composition containing 5×10.up.−8M all-trans retinoic acid, fixed and prepared for c-neu staining and detection by IIF as described in Experiment 1. […] We interpret this to mean that retinoid stimulation of autocrine growth proceeds through phosphorylation of an EGF-like receptor at points of cell-to-cell contact, which usually is only seen is post-mitotic suprabasal cells.

[5] = system: adult human keratinocytes; details: cited from earlier work
[6] = system: normal human keratinocytes; details: added to serum free growth factor supplemented medium; cited from earlier work

Compound: insulin: protein growth factor insulin, supplement of serum free medium
- keratinocyte clonal growth ([1]; standard medium + insulin 5 ug/ml only (Std+Ins)): less effective; also recorded: stimulated to grow

Compound: CC(=O)OC/C=C(C)/C=C/C=C(C)/C=C/C1=C(C)CCCC1(C)C (racemic) [retinyl acetate]
- keratinocyte clonal growth after one day (D1) compared with EGF plus insulin ([1]; 5 ug/ml insulin + 3×10^−8 M retinyl acetate, D1, FIG. 2): stimulated keratinocyte growth as well as the combination (EI)
- keratinocyte clonal growth ([1]; standard medium (Std) + 3×10^−8 M retinyl acetate alone): little if any keratinocyte growth
- keratinocyte clonal growth ([1]; standard medium + 5 ug/ml insulin and 3×10^−8 M retinyl acetate): sufficient to support the growth; also recorded: the best result was stimulation of keratinocyte growth
- HaCat growth, dish B versus dishes A and C [2]: significant growth
- healing of WHZ ([3]; 3×10^−5 M retinyl acetate): incomplete healing; also recorded: no healing; also recorded: complete failure to fill in the WHZ gap
- healing of WHZ ([3]; 3×10^−6 M retinyl acetate): incomplete healing
- healing in the WHZ ([3]; 3×10^−7 M retinyl acetate): ~100%
- healing of WHZ ([3]; 3×10^−7 M retinyl acetate): complete wound healing
- healing of WHZ ([3]; 3×10^−8 M retinyl acetate): complete healing

Compound: CC1=C(/C=C/C(C)=C/C=C/C(C)=C/C(=O)O)C(C)(C)CCC1 [all-trans retinoic acid]
- c-neu staining pattern ([4]; no alkaline phosphatase pre-treatment, FIG. 4A): virtually all of the positive staining was strictly localized to focal adherence areas
- c-neu phosphorylation ([4]; with alkaline phosphatase pretreatment, FIG. 4B): induced a labile phosphorylation of c-neu only at the focal adherence sites
- effect on keratinocyte growth ([5]; concentrations lower than the optimal 0.5 ng/ml): ineffective
- effect on keratinocyte growth ([5]; growth factor deficient medium, growth arrested cells, 0.1-2.5 ng/ml): stimulated growth
- optimal concentration required to produce the growth stimulation ([5]; growth factor deficient medium): 0.5 ng/mL
- effect on keratinocyte proliferation ([5]; growth factor-supplemented medium, 0.1-2.5 ng/ml): inhibited proliferation
- rate of keratinocyte proliferation relative to maximal rate in growth factor supplemented medium ([5]; retinoid-stimulated cultures, growth factor deficient medium): approximately 35%
- effect on clonal growth [6]: inhibits the clonal growth
